The numbers were not newly measured in PMC12022903, “Evaluation of drug-drug interaction between Suraxavir Marboxil (GP681) and itraconazole, and assessment of the impact of gene polymorphism” (Frontiers in Pharmacology, 2025), which cites them from elsewhere.

Data set [1] deals with avian influenza virus strains. As to conditions: ref unpublished data; cited from earlier work.
Details of data set [2]: method as in unpublished data. The settings on record: preclinical studies; ref unpublished data; cited from earlier work.
Data set [3] has as its system cytochrome P450 (CYP). Also on record: method as in unpublished data. As to conditions: preclinical studies; ref unpublished data; cited from earlier work.
In data set [4] the test system is BCRP. Also on record: method as in unpublished data. As to conditions: preclinical studies; ref unpublished data; cited from earlier work.
Data set [5] concerns MDR1. Also on record: method as in unpublished data. As to conditions: preclinical studies; ref unpublished data; cited from earlier work.
The test system of data set [6] is MDR1. Further details: method as in unpublished data. As to conditions: preclinical studies; ref unpublished data; cited from earlier work. The source holds these as a separate data set.
The test system of data set [7] is OATP1B1. Also on record: method as in unpublished data. As to conditions: preclinical studies; ref unpublished data; cited from earlier work.
Data set [8] has as its system OATP1B3. Also on record: method as in unpublished data. The settings on record: preclinical studies; ref unpublished data; cited from earlier work.
The subject of data set [9] is OAT1. Also on record: method as in unpublished data. As to conditions: preclinical studies; ref unpublished data; cited from earlier work.
On the set-up of data set [10]: method as in unpublished data. The settings on record: after oral GP681; ref unpublished data; cited from earlier work.
Data set [11] has as its system influenza virus. Further details: method as in preclinical studies. As to conditions: ref preclinical studies; cited from earlier work.

For the compound `O=C1c2c(O)c(=O)ccn2N([C@@H]2c3ccccc3SCc3c2ccc(F)c3F)[C@@H]2COC3(CC3)CN12` [GP1707D07], in data set [1], the “in vitro antiviral activity (average EC50 and EC90) compared with baloxavir” value was “better in vitro antiviral activity”; the “in vitro inhibitory activity against avian influenza virus strains” value is reported as “inhibitory activity against all tested avian influenza virus strains”. Besides, in data set [2], the route of excretion entry is on record as “mainly excreted in feces” and the tissue distribution result is reported as “widely distributed across various tissues”. The metabolizing enzymes entry in [3] is “mainly metabolized by cytochrome P450 (CYP) 1A2, CYP 2C8, and CYP 3A4”. Besides, the “substrate for the BCRP transporter” value in data set [4] was “Neither Suraxavir Marboxil (GP681) nor its metabolite, GP1707D07, serves as substrates”. For the same compound, the “substrate for the MDR1 transporter” value in data set [5] was “Neither Suraxavir Marboxil (GP681) nor its metabolite, GP1707D07, serves as substrates”. In addition, the “inhibition of transport activity of MDR1” value in [6] is reported as “nor do they inhibit the transport activity”. For the same compound, the “inhibition of transport activity of OATP1B1” value in data set [7] is on record as “nor do they inhibit the transport activity”. Also, the “inhibition of transport activity of OATP1B3” value in [8] was “nor do they inhibit the transport activity”. Moreover, the “inhibition of transport activity of OAT1” value in data set [9] is given as “nor do they inhibit the transport activity”. The “share of the total radioactivity in serum” value in data set [10] is recorded as “approximately 95.4%”. In [11], the “estimated clinically effective concentration (antiviral threshold)” value was 6.87 ng/mL.
